Entries after “also recorded” stand apart in the source; their conditions may differ. Ends that are not written are not given here.
How the values were obtained:
C57Bl/6 mice = test: Intestinal ischemia/reperfusion, mucosal injury score; assay type: in vivo, mouse; set-up: key to Injury: + indicates significant difference from Sham treated mice; − indicates not significantly different from C57B1/6 sham treated mice; +/− indicates no significant difference from either C57B1/6 mice subjected to either Sham or IR; details: for IR-induced intestinal mucosal damage (injury score): C57Bl/6 mice, peptide 40 μM i.v. 5 min prior to ischemia, 2 hours reperfusion; for IR-induced intestinal injury: Example 2, peptides administered after reperfusion (15-, 30-, or 60-minutes post-reperfusion)
Experimental: (§1) C57Bl/6 and Rag-1^−/− mice were subjected to ischemia followed by reperfusion similar to previously described studies (Moses, T. et al., J. Leukoc. Biol. 86:971-980 (2009)). Briefly, ketamine (16 mg/kg) and xylazine (80 mg/kg) were used to anesthetize the mice. Buprenorphine (0.06 mg/kg) was then administered for pain. A midline laparotomy was performed to expose the abdominal cavity of the mice, which were then allowed to equilibrate for 30 min. Body temperature was maintained at 37° C. using a water-circulating heat pad. Placing a warm, saline moistened piece of gauze over the abdominal cavity prevented peritoneal desiccation. […] Ischemia was noted by the intestine changing from a pink color to a gray color. After 30 min of ischemia, the clamp was removed and the intestines were allowed to reperfuse for 5, 10, 15, or 120 min. […] Mice treated with the various β2-GPI peptides underwent the same procedure with i.v. administration of the peptides (40 μM) 5 min prior to artery occlusion. Peptides 296, 305, and 296Cys to Ser were dissolved in N. Saline (0.9% NaCl) and injected i.v. in 100-μL volumes. Peptides 100 and 181 were dissolved in DMSO prior to diluting 1/100 in N. Saline. Additional mice received peptides prior to Sham treatment.
Immediately after euthanasia, a 2-cm mid jejunum tissue section was immediately fixed in 10% buffered formalin, embedded in paraffin, and 8 μm sections were cut transversely and hematoxylin and eosin (H&E) stained. Mucosal injury was graded on a six-tiered scale, as described previously (Fleming, S. D. et al., J. Immunol. 169:2126-2133 (2002)). Briefly, the average damage score of the intestinal section (75-150 villi) was determined after grading each villus. […] Photomicrographs were obtained from H&E stained slides using a 20×, 0.5 Plan Fluor objective on a Nikon 80i microscope and images acquired at room temperature using a Nikon DS-5M camera with DS-L2 software.
Ischemia/reperfusion was performed on ketamine/xylazine anesthetized mice as described in Example 1 above. After 2 hours of reperfusion, the mice were euthanized and sera, liver, spleen, and 2 cm sections of the small intestine, approximately 10 cm distal to the gastroduodenal junction, were collected for histological and other analyses. Mice treated with the various β2-GPI peptides underwent the same procedure with i.v. administration of the peptides. Most studies assumed 2 mL total blood volume in a mouse and administered peptides to a final concentration of 40 μM at 5 min prior to ischemia. Dose response studies administered 1-40 μM peptide at 5 min prior to ischemia and time course studies administered 40 μM peptide at 5 min prior to ischemia, and at 15-, 30- or 60-min post-ischemia (i.e., during reperfusion).
After euthanasia, tissue sections were fixed and stained following the procedures outlined in Example 1. Mucosal injury (SMI) was also graded on a six-tiered scale, as described in Example 1.

IL-12 = test: Intestinal IR, ex vivo IL-12 generation; assay type: in vivo, mouse; set-up: key to IL-12p40 Induction: + indicates significant difference from Sham treated mice; − indicates not significantly different from C57B1/6 sham treated mice; +/− indicates no significant difference from either C57B1/6 mice subjected to either Sham or IR; details: for IL-12p40 Induction: C57Bl/6 mice subjected to IR, peptide 40 μM i.v. 5 min prior to artery occlusion; for IR induced IL-12 production: C57Bl/6 mice, peptide prior to IR
Experimental: as §1
Ex vivo generation of eicosanoids by mid-jejunal tissue was determined. Immediately after collection, a 2-cm intestinal section from each mouse was minced, washed, resuspended in 37° C. oxygenated Tyrode's buffer (Sigma-Aldrich; St. Louis, Mo.), incubated at 37° C. for 20 minutes, and the supernatant collected. PGE2 and LTB4 concentrations were determined using enzyme immunoassay kits (Cayman Chemical; Ann Arbor, Mich.). IL-6 and IL-12 concentrations were determined using a Milliplex MAP immunoassay kit (Millipore) and read on a Milliplex Analyzer (Millipore). All eicosanoid and cytokine concentrations were standardized to the total tissue protein content.
Total peroxidase, LTB4, PGE2, IL-6, IL-12p40, and IL-12p70 concentrations were determined using the procedures described in Example 1.

[1] = system: hypoxic MS-1 endothelial cells; test: In vitro hypoxia and immunocytochemistry: β2-GPI / anti-β2-GPI mAb binding to hypoxic endothelial cells; assay type: cell-based, mouse; details: peptide 40 μM during 4 hours hypoxia
Experimental: MS-1 endothelial cells were subjected to hypoxia or normoxia to validate β2-GPI binding in vitro. Hypoxic MS-1 endothelial cells (ATCC CRL-2279) received degassed, serum-free DMEM and were placed in a hypoxia chamber containing 94% nitrogen and 5% CO2. Normoxic cells received DMEM supplemented with 10% heat-inactivated sera from Rag-1^−/− mice in 8% CO2. After 4 hours at 37° C., all cells received fresh medium containing 10% heat-inactivated Rag-1^−/− sera and were incubated in normoxic conditions for 1 hour at 37° C. Additional peptide-inhibition studies were performed by addition of peptides (40 μM final concentration) during the hypoxic period. Cells were methanol fixed and stained with the anti-β2-GPI mAb (Millipore; Billerica, Mass.) followed by an anti-mouse IgG antibody to determine β2-GPI binding. Anti-β2-GPI binding was determined by allowing anti-β2-GPI mAb (Millipore) to bind during the 1 hour normoxic period. The cells were then stained with anti-mouse IgG antibodies (Jackson ImmunoResearch; West Grove, Pa.) as previously described (Fleming, S. D. et al., J. Immunol. 173:7055-7061 (2004)). Slides were mounted with DAPI (Blue) to identify the nuclei. The fluorescence was determined in a blind manner using a Nikon 80i fluorescent microscope with a 40× Plan Fluor objective and images acquired using a CoolSnap Cf camera (Photometrics; Tucson, Ariz.) and MetaVue Imaging software (Molecular Devices; Sunnyvale, Calif.). Each photomicrograph in the Figures is representative of 3 experiments with 4-6 photomicrographs per treatment group in each experiment. Bar=40 μm. Hypoxia was conducted similar to previous studies with the following modifications (Banerjee, S. et al., Reprod. Biol. Endocrinol. 7:4 (2009)). Hypoxic cells received degassed, serum-free DMEM and were placed in a hypoxia chamber containing 94% nitrogen, 5% CO2, and 1% O2. Normoxic cells received normal DMEM with 10% FBS in 8% CO2. After 2 hours at 37° C., all cells received fresh medium containing 10% heat-inactivated Rag-1^−/− sera and then were incubated under normoxic conditions for 1 hour at 37° C. Cells receiving β2-GPI peptides were administered the peptides (40 μM) during the 2 hours of either hypoxia or normoxia. IgG binding was determined using anti-mouse IgG antibodies (Jackson ImmunoResearch) as previously described (Fleming, S. D. et al., J. Immunol. 173:7055-7061 (2004)). Similarly, after Sham or IR, intestinal sections from peptide-treated mice were stained with anti-IgG antibodies to determine antibody deposition. The fluorescence was determined in a blind manner using a Nikon 80i fluorescent microscope and images acquired using a CoolSnap Cf camera (Photometrics) and MetaVue Imaging software (Molecular Devices).

[2] = C57Bl/6 mice subjected to IR, peptide 40 μM i.v. 5 min prior to artery occlusion
[3] = 10 μM peptide 5 min prior to IR
[4] = administered at 60 min post-reperfusion
[5] = administered at either 5- or 15-min post-reperfusion, 2-hour assay
[6] = treatment at both 30 min and 60 min post-reperfusion

Substance | Injury (C57Bl/6 mice; [2]) | IR-induced intestinal mucosal damage (injury score) (C57Bl/6 mice) | IL-12p40 Induction (IL-12) | IR induced IL-12 production (IL-12) | anti-β2-GPI mAb binding to hypoxic MS-1 cells [1] | β2-GPI binding to hypoxic endothelial cells [1] | intestinal damage (C57Bl/6 mice; 4 μM peptide 5 min prior to IR) | Injury (C57Bl/6 mice; [3]) | IR-induced intestinal mucosal damage (injury score) (C57Bl/6 mice; listed as 296c-s) | IR-induced intestinal injury (C57Bl/6 mice) | intestinal injury (C57Bl/6 mice; [4]) | intestinal injury (C57Bl/6 mice; [5]) | intestinal injury (C57Bl/6 mice; [6])
H-IHFYCKNKEKKCSYTVEAHCRDGTI-OH (cysteine pairing not given here) [peptide 296] | − | attenuated mucosal damage | − | attenuated; also recorded: inhibit | did not bind | capable of preventing β2-GPI from binding |  |  |  |  |  |  | 
H-IHFYSKNKEKKSSYTVEAHSRDGTI-OH [peptide 296Cys-Ser] | − | attenuated mucosal damage; also recorded: confirmed to attenuate injury | − | attenuated; also recorded: inhibit |  | attenuated β2-GPI binding | attenuated | optimally attenuated | attenuate actual epithelial injury more effectively | effective for attenuating | attenuated | effective in preventing intestinal injury | significantly decreased
H-IPSCFKEHSSLAFWKTDASELTPC-NH2 (cysteine pairing not given here) [peptide 322, 18] | + | IR-induced intestinal damage similar to untreated mice | + | did not inhibit | did not inhibit antibody binding |  |  |  |  |  |  |  | 
H-KKCSYTVEAHCRDGTIEIPSCFKEHS-OH (cysteine pairing not given here) [peptide 305, 10] | − | attenuated mucosal damage | − | attenuated; also recorded: inhibited | did not bind | capable of preventing β2-GPI from binding |  | optimally attenuated |  | effective for attenuating | attenuated | effective in preventing intestinal injury | significantly decreased
H-KNISFACNPGFFLNG-NH2 [peptide 100, 16, reference compound] | + | IR-induced intestinal damage similar to untreated mice | +/− |  | did not inhibit antibody binding |  |  |  |  |  |  |  | 

Source: patent US8895502B2, “β2-glycoprotein I peptide inhibitors” (Kansas State University Research Foundation, priority 2010, dated 2014)
